Results: US20260265265A1, “NOVEL BENZIMIDAZOLONE DERIVATIVE COMPOUND AS AUTOTAXIN INHIBITOR” (LG CHEM, LTD., priority 2023, published 2026)

Target: T1, Recombinant Human ENPP-2/Autotaxin (Homo sapiens, UniProt Q13822)
T1 construct: purchased R&D systems 5255-EN
Assay: LysoPLD activity measurement (autotaxin enzyme inhibition, choline release, TOOS reagent)
Type: biochemical
Conditions: LysoPLD inhibitory activity; substrate 14:0 LysoPC; absorbance at 555 nm
Protocol: Such a measurement method is a method of measuring the amount of choline, which is a reaction product in an autotaxin enzyme reaction, using a TOOS reagent. Depending on the activity of the autotaxin inhibitor, the amount of choline produced as a reaction product varies, which affects the final absorbance.
After 30 min, 14:0 LysoPC of the substrate diluted to a concentration of 300 μM with the enzyme reaction buffer solution was dispensed into each well by 50 μL and allowed to stand at 37° C. for 90 minutes. At this time, negative control wells were dispensed with 1% DMSO, substrate, and autotaxin instead of the compound, and positive control wells were dispensed with 1% DMSO and substrate.

| SMILES | IC50 [nM] |
| --- | --- |
| O=C(O)c1cc(Cn2c(=O)n(-c3ccc(N4CCOCC4)cc3)c3cc(Cl)ccc32)cc(F)c1F [Example 203, 5-((5-chloro-3-(4-morpholinophenyl)-2-oxo-2,3-dihydro-1H-benzo[d]imidazol-1-yl)methyl)-2,3-difluorobenzoic acid] | 10 to 100 |
| CC(C)(O)c1ccc(-n2c(=O)n(C3(c4cccc(C(=O)O)c4)CC3)c3ccc(Cl)cc32)cc1 [Example 246, 3-(1-(5-chloro-3-(4-(2-hydroxypropane-2-yl)phenyl)-2-oxo-2,3-dihydro-1H-benzo[d]imidazol-1-yl)cyclopropyl)benzoic acid] | < 10 |
| O=C(O)c1cccc(C2(n3c(=O)n(-c4ccc(-c5nnc(C6CCCCC6)o5)cc4)c4cc(Cl)ccc43)CC2)c1 [Example 265, 3-(1-(5-chloro-3-(4-(5-cyclohexyl-1,3,4-oxadiazol-2-yl)phenyl)-2-oxo-2,3-dihydro-1H-benzo[d]imidazol-1-yl)cyclopropyl)benzoic acid] | 10 to 100 |
| O=C(O)c1cccc(C2(n3c(=O)n(-c4ccc(C5CCOCC5)nc4)c4cc(Cl)ccc43)CC2)c1 [Example 261, 3-(1-(5-chloro-2-oxo-3-(6-(tetrahydro-2H-pyran-4-yl)pyridin-3-yl)-2,3-dihydro-1H-benzo[d]imidazol-1-yl)cyclopropyl)benzoic acid] | 10 to 100 |
| O=C(O)c1cccc(C2(n3c(=O)n(-c4ccc(Cn5cnc(C(F)(F)F)c5)cc4)c4cc(Cl)ccc43)CC2)c1 [Example 237, 3-(1-(5-chloro-2-oxo-3-(4-((4-(trifluoromethyl)-1H-imidazol-1-yl)methyl)phenyl)-2,3-dihydro-1H-benzo[d]imidazol-1-yl)cyclopropyl)benzoic acid] | 10 to 100 |
| O=C(O)c1cccc(C2(n3c(=O)n(-c4ccc(C5CCOC5)cc4)c4cc(Cl)ccc43)CC2)c1 (stereo not drawn) [Example 248, 3-(1-(5-chloro-2-oxo-3-(4-(tetrahydrofuran-3-yl)phenyl)-2,3-dihydro-1H-benzo[d]imidazol-1-yl)cyclopropyl)benzoic acid] | < 10 |
| O=C(O)c1cc(F)cc(C2(n3c(=O)n(-c4ccc(N5CC6(CCC6)C5)cc4)c4cc(Cl)ccc43)CC2)c1 [Example 196, 3-(1-(3-(4-(2-azaspiro[3.3]heptan-2-yl)phenyl)-5-chloro-2-oxo-2,3-dihydro-1H-benzo[d]imidazol-1-yl)cyclopropyl)-5-fluorobenzoic acid] | 10 to 100 |
| O=C(O)c1coc(Cn2c(=O)n(-c3ccc(N4CCOCC4)cc3)c3c(F)c(Cl)ccc32)n1 [Example 199, 2-((5-chloro-4-fluoro-3-(4-morpholinophenyl)-2-oxo-2,3-dihydro-1H-benzo[d]imidazol-1-yl)methyl)oxazole-4-carboxylic acid] | 100 to 1000 |
| CSc1ccc(-n2c(=O)n(Cc3cccc(C(=O)O)c3F)c3ccc(Cl)cc32)cc1 [Example 55, 3-((5-chloro-3-(4-(methylthio)phenyl)-2-oxo-2,3-dihydro-1H-benzo[d]imidazol-1-yl)methyl)-2-fluorobenzoic acid] | 10 to 100 |
| CN(C)c1ccc(-n2c(=O)n(C3(c4cccc(C(=O)O)c4)CCC3)c3ccc(Cl)cc32)cc1 [Example 156, 3-(1-(5-chloro-3-(4-(dimethylamino)phenyl)-2-oxo-2,3-dihydro-1H-benzo[d]imidazol-1-yl)cyclobutyl)benzoic acid] | 10 to 100 |
| O=C(O)c1cccc(C2(n3c(=O)n(-c4ccc(C5(CO)CCC5)cc4)c4cc(Cl)ccc43)CC2)c1 [Example 239, 3-(1-(5-chloro-3-(4-(1-(hydroxymethyl)cyclobutyl)phenyl)-2-oxo-2,3-dihydro-1H-benzo[d]imidazol-1-yl)cyclopropyl)benzoic acid] | < 10 |
| O=C(O)c1cccc(C2(n3c(=O)n(-c4ccc(N5CCCOCC5)cc4)c4cc(Cl)ccc43)CC2)c1 [Example 183, 3-(1-(3-(4-(1,4-oxazepan-4-yl)phenyl)-5-chloro-2-oxo-2,3-dihydro-1H-benzo[d]imidazol-1-yl)cyclopropyl)benzoic acid] | < 10 |
| CC1(C)OCc2cc(-n3c(=O)n(C4(c5cccc(C(=O)O)c5)CC4)c4ccc(Cl)cc43)ccc21 [Example 251, 3-(1-(5-chloro-3-(1,1-dimethyl-1,3-dihydroisobenzofuran-5-yl)-2-oxo-2,3-dihydro-1H-benzo[d]imidazol-1-yl)cyclopropyl)benzoic acid] | < 10 |

The next lines start with the values.

| IC50 [nM] | SMILES |
| --- | --- |
| 10 to 100 | O=C(O)c1cccc(Cn2c(=O)n(-c3ccc(N4CCN(C(=O)C5CCC5)CC4)cc3)c3cc(Cl)ccc32)c1F [Example 142, 3-((5-chloro-3-(4-(4-(cyclobutanecarbonyl)piperazin-1-yl)phenyl)-2-oxo-2,3-dihydro-1H-benzo[d]imidazol-1-yl)methyl)-2-fluorobenzoic acid] |
| 10 to 100 | O=C(O)c1cccc(Cn2c(=O)n(-c3ccc(N4CCCC4)cc3)c3cc(Cl)ccc32)c1 [Example 29, 3-((5-chloro-2-oxo-3-(4-(pyrrolidin-1-yl)phenyl)-2,3-dihydro-1H-benzo[d]imidazol-1-yl)methyl)benzoic acid] |
| 10 to 100 | O=C(O)c1cccc(Cn2c(=O)n(-c3ccc(N4CCCCC4=O)cc3)c3cc(Cl)ccc32)c1 [Example 28, 3-((5-chloro-2-oxo-3-(4-(2-oxopiperidin-1-yl)phenyl)-2,3-dihydro-1H-benzo[d]imidazol-1-yl)methyl)benzoic acid] |
| < 10 | CN(C)C(=O)c1ccc(-n2c(=O)n(Cc3cccc(C(=O)O)c3)c3ccc(Cl)cc32)cc1 [Example 21, 3-((5-chloro-3-(4-(dimethylcarbamoyl)phenyl)-2-oxo-2,3-dihydro-1H-benzo[d]imidazol-1-yl)methyl)benzoic acid] |
| 100 to 1000 | O=C(O)c1cccc(Cn2c(=O)n(-c3ccc(C(F)(F)F)cc3)c3cc(Cl)ccc32)c1 [Example 4, 3-((5-chloro-2-oxo-3-(4-(trifluoromethyl)phenyl)-2,3-dihydro-1H-benzo[d]imidazol-1-yl)methyl)benzoic acid] |
| 10 to 100 | O=C(O)c1cccc(Cn2c(=O)n(-c3ccc(C4=CCOCC4)cc3)c3cc(Cl)ccc32)c1 [Example 104, 3-((5-chloro-3-(4-(3,6-dihydro-2H-pyran-4-yl)phenyl)-2-oxo-2,3-dihydro-1H-benzo[d]imidazol-1-yl)methyl)benzoic acid] |
| 10 to 100 | CCC(=O)N1CCN(c2ccc(-n3c(=O)n(Cc4cccc(C(=O)O)c4F)c4ccc(Cl)cc43)cc2)CC1 [Example 141, 3-((5-chloro-2-oxo-3-(4-(4-propionylpiperazin-1-yl)phenyl)-2,3-dihydro-1H-benzo[d]imidazol-1-yl)methyl)-2-fluorobenzoic acid] |
| 10 to 100 | O=C(O)c1cccc(Cn2c(=O)n(-c3ccc(N4CCC(F)(F)CC4)nc3)c3cc(Cl)ccc32)c1 [Example 82, 3-((5-chloro-3-(6-(4,4-difluoropiperidin-1-yl)pyridin-3-yl)-2-oxo-2,3-dihydro-1H-benzo[d]imidazol-1-yl)methyl)benzoic acid] |
| 100 to 1000 | O=C(O)c1cccc(Cn2c(=O)n(-c3ccc(C(=O)O)cc3F)c3cc(Cl)ccc32)c1 [Example 46, 4-(3-(3-carboxybenzyl)-6-chloro-2-oxo-2,3-dihydro-1H-benzo[d]imidazol-1-yl)-3-fluorobenzoic acid] |
| 10 to 100 | O=C(O)c1cccc(Cn2c(=O)n(-c3ccc(C(=O)N4CCCC4)cc3)c3cc(Cl)cnc32)c1 [Example 169, 3-((6-chloro-2-oxo-1-(4-(pyrrolidine-1-carbonyl)phenyl)-1,2-dihydro-3H-imidazo[4,5-b]pyridin-3-yl)methyl)benzoic acid] |
| 10 to 100 | O=C(O)c1cccc(Cn2c(=O)n(-c3ccc(N4CCOCC4)cc3)c3cc(Cl)ccc32)c1 [Example 47, 3-((5-chloro-3-(4-morpholinophenyl)-2-oxo-2,3-dihydro-1H-benzo[d]imidazol-1-yl)methyl)benzoic acid] |
| 100 to 1000 | O=C(O)c1cccc(Cn2c(=O)n(-c3cnn(CC4CC4)c3)c3cc(Cl)ccc32)c1 [Example 90, 3-((5-chloro-3-(1-cyclopropylmethyl-1H-pyrazol-4-yl)-2-oxo-2,3-dihydro-1H-benzo[d]imidazol-1-yl)methyl)benzoic acid] |
| 100 to 1000 | O=C(O)c1cccc(Cn2c(=O)n(-c3ccc(N4CC(O)C4)nc3)c3cc(Cl)ccc32)c1 [Example 77, 3-((5-chloro-3-(6-(3-hydroxyazetidin-1-yl)pyridin-3-yl)-2-oxo-2,3-dihydro-1H-benzo[d]imidazol-1-yl)methyl)benzoic acid] |
| < 10 | O=C(O)c1cccc(C2(n3c(=O)n(-c4ccc(C(=O)N5CCC(F)(F)CC5)cc4)c4cc(Cl)ccc43)CC2)c1F [Example 133, 3-(1-(5-chloro-3-(4-(4,4-difluoropiperidine-1-carbonyl)phenyl)-2-oxo-2,3-dihydro-1H-benzo[d]imidazol-1-yl)cyclopropyl)-2-fluorobenzoic acid] |
| 100 to 1000 | O=C(O)c1cccc(Cn2c(=O)n(-c3ccc(N4CCC(F)(F)C4)nc3)c3cc(Cl)ccc32)c1 [Example 80, 3-((5-chloro-3-(6-(3,3-difluoropyrrolidin-1-yl)pyridin-3-yl)-2-oxo-2,3-dihydro-1H-benzo[d]imidazol-1-yl)methyl)benzoic acid] |
| 100 to 1000 | O=C(O)c1cccc(Cn2c(=O)n(-c3ccc(O)cc3)c3cc(Cl)ccc32)c1 [Example 13, 3-((5-chloro-3-(4-hydroxyphenyl)-2-oxo-2,3-dihydro-1H-benzo[d]imidazol-1-yl)methyl)benzoic acid] |
| 100 to 1000 | CN(C)c1ccc(-n2c(=O)n(Cc3cccc(C(=O)O)c3)c3cc(Cl)cc(F)c32)cc1 [Example 37, 3-((6-chloro-3-(4-(dimethylamino)phenyl)-4-fluoro-2-oxo-2,3-dihydro-1H-benzo[d]imidazol-1-yl)methyl)benzoic acid] |
